Patent publication US20050014849A1, “Antifungal phenylethylene” (priority 2001, published 2005)
Values after ≈ are worked out from the molar mass of the structure shown.

Key:
C. laurentii ATCC 18803 = test: Broth macrodilution MIC/MFC; assay type: cell-based, Cryptococcus laurentii
Protocol: TMPN was screened against yeasts by the broth macrodilution assay according to the NCCLS [7]. Yeasts were suspended and diluted as recommended to yield final inocula ranging from 0.5-2.5×10^3 cfu/ml. Tests were performed in sterile 12 by 75 mm plastic tubes containing two-fold dilutions of TMPN in 0.165 M morpholinepropanesulfonic acid buffered RPMI 1640 medium (pH 7.0). One tube was again left drug free (but contained an equivalent volume of DMSO) for a turbidity control. Tubes were incubated without agitation at the appropriate temperature (see Fungal Strains section above). MICs were determined after 72 h for Cryptococcus and after 48 h for other yeast genera. The MIC was defined as the lowest concentration of TMPN that inhibited all visible growth of the test organism (optically clear).
Minimum fungicidal concentrations (MFCs) were determined by subculturing 0.1 ml from each tube with no visible growth in the MIC broth macrodilution series onto the appropriate drug-free plates (see Fungal Strains section above).

[1] = test system: murine P388 lymphocytic leukemia cell line and six human cancer cell lines; test: Sulforhodamine B cancer cell growth inhibition (summary over lines); assay type: cell-based
Protocol: An investigation TMPN's in vitro antineoplastic activity was also conducted. This investigation included an analysis of both cell growth, and of the effects of TMPN upon tubulin. Inhibition of cancer cell growth was assessed using the Sulforhodamine B assay as previously described. Briefly, cells in 5% fetal calf serum/RPMI-1640 were inoculated into 96 well plates, incubated 24 h and 10-fold dilutions of TMPN added. After a 48 h incubation, plates were fixed with trichloroacetic acid, washed, stained with Sulforhodamine B and read with an automated microtiter plate reader.

COc1cc(C=C[N+](=O)[O-])cc(OC)c1OC [TMPN, 1-(3′,4′,5′-trimethoxyphenyl)-2-nitro-ethylene]
MFC Range (C. laurentii ATCC 18803): 32 µg/mL (≈ 134 µM)
MIC Range (C. laurentii ATCC 18803): 16 µg/mL (≈ 66.9 µM)
GI50 ([1]; Mus musculus, P388, murine P388 and six human cancer cell lines, read-out: GI50 values, range over cell lines): 1 to 4 µg/mL (≈ 4.18 to 16.7 µM)
GI50 values, range over cell lines ([1]; murine P388 and six human cancer cell lines): 1.1 to 4.1 µg/mL
